From ChEMBL document CHEMBL3832061 come the findings set out here.

Series [1] is described as follows: (§1) Pharmacokinetic parameters for Zolmitriptan following oral administration of Zolmitriptan tablets to subjects with different healthy conditions. It counts as ADME, organism-based. The note with it: human, in vivo.
Another series relates to Homo sapiens. The description is as §1. The series is classed as ADME, organism-based. The conditions noted are these: in vivo.

As for `CN(C)CCc1c[nH]c2ccc(C[C@H]3COC(=O)N3)cc12` [ZOLMITRIPTAN], the apparent clearance (CL/F) – broadly, clearance divided by bioavailability, as obtained after extravascular dosing – in series [1] was found to be 31.5 mL/min/kg. The dose excreted in series [1] (read-out: Excretion) was determined as 8%. Moreover, in the series on Homo sapiens, the time to peak (Tmax) (as a rule, the time from dosing to the highest level) is 3 hr [middle of 4 runs] and the Vd worked out at 7 L/kg.
